Test results reported in PubChem BioAssay AID1963846 (Molecular Pharmacology Branch, DTP, NCI, 2024).

System: 454973-116-R2-J3-PDC complex spheroid viability
Assay: Anticancer human tumor 454973-116-R2-J3-PDC patient-derived pancreatic carcinoma cell line growth inhibition [POLQ]
Conditions: for IC50: curve of first compound; for viability, T/C: stronger effect = lower value; active = viability on the fitted dose curve at most 10% of control; inactive = the rest
Method in brief: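 Complex spheroid viability model combining PDC tumour cells with endothelial (HUVEC) and MSC stromal cells. Novobiocin, ART-558 or RP6685 were tested singly and in combination with standard and investigational anticancer drugs. Each was titrated in half-log steps from near clinical Cmax, or from 10 microM where Cmax was unknown.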
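Note: spheroids exposed to drugs for seven days before measurement.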
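Throughout, for viability, T/C: percent viability relative to DMSO vehicle control wells taken as 100%.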

C#Cc1c(F)ccc2cc(O)cc(-c3ncc4c(N5CC6CCC(C5)N6)nc(OCC56CCCN5CC(F)C6)nc4c3F)c12 (configuration not stated) + Nc1ccc(C#CCN(C(=O)Cc2ncc(C(F)(F)F)cc2C(F)(F)F)c2ccc(F)cc2)nn1
inactive: viability, T/C (second compound 0.0316 µM, first compound 0.0316 µM) 47.5% | viability, T/C (second compound 0.0316 µM, first compound 0.1 µM) 36.1% | viability, T/C (second compound 0.0316 µM, first compound 0.316 µM) 28.4% | viability, T/C (second compound 0.0316 µM, first compound 1 µM) 24.1% | viability, T/C (second compound 0.0316 µM, first compound 3.16 µM) 19% | viability, T/C (second compound 0.0316 µM, first compound 10 µM) 18.1% | viability, T/C (second compound 0.1 µM, first compound 0.0316 µM) 46.1% | viability, T/C (second compound 0.1 µM, first compound 0.1 µM) 36% | viability, T/C (second compound 0.1 µM, first compound 0.316 µM) 26% | viability, T/C (second compound 0.1 µM, first compound 1 µM) 24% | viability, T/C (second compound 0.1 µM, first compound 3.16 µM) 22.2% | viability, T/C (second compound 0.1 µM, first compound 10 µM) 18% | viability, T/C (second compound 0.316 µM, first compound 0.0316 µM) 49.8% | viability, T/C (second compound 0.316 µM, first compound 0.1 µM) 35.8% | viability, T/C (second compound 0.316 µM, first compound 0.316 µM) 28.9% | viability, T/C (second compound 0.316 µM, first compound 1 µM) 25.5% | viability, T/C (second compound 0.316 µM, first compound 3.16 µM) 22.1% | viability, T/C (second compound 0.316 µM, first compound 10 µM) 19.6% | viability, T/C (second compound 1 µM, first compound 0.0316 µM) 46.2% | viability, T/C (second compound 1 µM, first compound 0.1 µM) 35.1% | viability, T/C (second compound 1 µM, first compound 0.316 µM) 29.3% | viability, T/C (second compound 1 µM, first compound 1 µM) 25.4% | viability, T/C (second compound 1 µM, first compound 3.16 µM) 22.7% | viability, T/C (second compound 1 µM, first compound 10 µM) 18.8% | viability, T/C (second compound 3.16 µM, first compound 0.0316 µM) 43.8% | viability, T/C (second compound 3.16 µM, first compound 0.1 µM) 35.4% | viability, T/C (second compound 3.16 µM, first compound 0.316 µM) 25.6% | viability, T/C (second compound 3.16 µM, first compound 1 µM) 25.2% | viability, T/C (second compound 3.16 µM, first compound 3.16 µM) 21.9% | viability, T/C (second compound 3.16 µM, first compound 10 µM) 18.5% | viability, T/C (second compound 10 µM, first compound 0.0316 µM) 44.6% | viability, T/C (second compound 10 µM, first compound 0.1 µM) 39.3% | viability, T/C (second compound 10 µM, first compound 0.316 µM) 32.8% | viability, T/C (second compound 10 µM, first compound 1 µM) 28% | viability, T/C (second compound 10 µM, first compound 3.16 µM) 23.4% | viability, T/C (second compound 10 µM, first compound 10 µM) 23.5%
< 31.6 nM: IC50 (second compound 0.0316 µM) | IC50 (second compound 0.1 µM) | IC50 (second compound 0.316 µM) | IC50 (second compound 1 µM) | IC50 (second compound 3.16 µM) | IC50 (second compound 10 µM)
